What was measured:
[1] = Single rising oral dose pharmacokinetics of NC-758 in healthy young and elderly male volunteers (Example 7); type: in vivo, human; details: for Tmax: median
Description: (§1) In the following examples and elsewhere herein, terms are as defined below. The pharmacokinetic parameters were derived by non-compartmental analysis using WinNonlin Version 2.1. • Cmax—the maximum observed plasma concentration. • Tmax—the time of occurrence of Cmax. • AUC0-t—the area under the plasma concentration versus time curve from time zero to the last sampling time at which concentrations were at or above the limit of quantification, calculated by the linear trapezoidal rule. • AUC∞—the area under the plasma concentrations versus time curve from time zero to infinity, calculated from AUC0-t+(Clast/λz), where Clast is the last observed quantifiable concentration and λz is the apparent terminal rate constant. • t1/2—the apparent terminal half-life, calculated from 1n 2λz.
The pharmacokinetic profile and the effect of food on single rising oral doses of 3-APS free acid (modified-release enteric-coated tablet, as described in Table 3 above, hereinafter “NC-758”) in healthy male young (18-45 years) volunteers was determined. The pharmacokinetics of a single oral dose of NC-758 was also determined in a group of healthy male elderly (≧55 years old) volunteers. The test was a randomized, double-blind, placebo-controlled study to assess the pharmacokinetic profile of 4 single rising oral doses of NC-758 in healthy young (18-45 years) male subjects. Blood samples were collected during 24 h following dosing. Plasma concentrations of 3-APS were determined using a validated LC-MS/MS method.

[2] = Part I: multiple rising oral dose pharmacokinetics of NC-758 in healthy young and elderly subjects (Example 8); type: in vivo, human; details: fasted; for Tmax: median
Description: as §1
The pharmacokinetic profile of multiple rising oral doses of 3-APS free acid (NC-758 of Table 3 above) in healthy male young subjects (18-45 years) and healthy male and female elderly (≧55 years) subjects was assessed. The pharmacokinetic profile of a titrated multiple oral rising dose regimen of NC-758 was also assessed in one group of healthy male young (18-45 years) subjects. […] Part I was a randomized, double-blind, placebo-controlled study to assess the pharmacokinetic profile of 2 multiple rising oral doses of NC-758 in healthy young (18-45 years) male subjects. […] In Part I, blood samples were collected through 24 h after the first dose on Day 1, before each morning dose on Days 2 to 11, and through 48 h after the final dose on Day 12. For Part II, blood samples were collected through 36 and 48 h, respectively. Plasma concentrations of 3-APS were determined using a validated LC-MS/MS method.

[3] = Single oral dose pharmacokinetics of NC-758-1 in healthy elderly volunteers (Example 9); type: in vivo, human; details: elderly (≧55 years) male and female subjects, fasted; for Tmax: median
Description: as §1
The pharmacokinetic profile and the effect of food on single oral doses of 3-APS free acid (modified-release enteric-coated tablet as described in Table 5 above, hereinafter “NC-758-1”) in healthy male and female elderly (≧55 years) volunteers. The test was an open label, three-period crossover study to assess the pharmacokinetic profile of 3 single oral doses of NC-758-1 in healthy elderly (≧55 years) male and female subjects. The blood samples were collected during 24 h following dosing. Plasma concentrations of 3-APS were determined using a validated LC-MS/MS method.

[4] = Pharmacokinetics of NC-758-1 in mild to moderate Alzheimer's Disease patients, 12 weeks BID (Example 10); type: in vivo; details: human, plasma, oral, AD patients; for AUC(0-inf): only patients with estimable elimination rate constant; for Tmax: median
Description: as §1
A multicenter, randomized, double-blind, placebo-controlled and parallel designed study has been completed with NC-758-1 from Table 5 above in patients suffering from mild to moderate Alzheimer's Disease (AD). This study included assessing the pharmacokinetic/pharmacodynamic profile in AD patients.
A total of fifty-eight (58) mild to moderate AD patients (MMSE scores=13 to 26) were enrolled from 6 centers in the United States. Patients were randomized to receive in 1:1:1:1 ratio of NC-758-1 at 50, […], 150 mg BID or placebo BID for 12 weeks. Study medication was administered orally (tablet). Each patient was evaluated on 6 occasions at screening, baseline [Week 0], weeks 2, 4, 8 and 12. Blood samples were collected from each patient prior to dosing and at specified time points through 12 h post-dose after the first dose (Week 0) and the last dose (Week 12). Blood samples were also collected prior to the first dose of the day during Week 2, 4 and 8 visits.

[5] = dog, in vivo
Description: (§2) Furthermore, the non-hygroscopic nature of the acid form makes it desirable as active pharmaceutical ingredient. To further protect against any possible gastrointestinal intolerance that could result from the acid form, the tablets were enteric-coated and a modified-release agent was added to control any rapid release of the drug in the stomach and the intestine, respectively.

[6] = Hygroscopic nature of the active ingredient; type: physicochemical
[7] = Crossing of the blood/brain barrier; set-up: species or system human; details: in vivo
CSF Aβ42 = CSF Aβ42 and Aβ42/Aβ40 ratio in mild-to-moderate AD patients; type: in vivo, human
Description: FIG. 1 Change from Baseline CSF Aβ42 versus 3-APS doses
FIG. 2 Effect of 3-APS on CSF Aβ42/40 Ratio in Mild-to-Moderate AD Patients—Placebo vs. 150 mg BID

[8] = Pharmacokinetics of NC-758-1 in mild to moderate Alzheimer's Disease patients, 12 weeks BID (Example 10); type: in vivo; details: human, plasma, oral, AD patients; for Tmax: median
[9] = Gastrointestinal symptoms after administration of solid dosage form (capsules); type: in vivo
Description: as §2

[10] = 200 mg dose, elderly vs. young (Tables 9 and 10)
[11] = 50 mg, Alzhemed (NC-758-1) 50 mg BID, Week 0 (single dose), mean
[12] = 150 mg, Alzhemed (NC-758-1) 150 mg BID, Week 0 (single dose), mean

NCCCS(=O)(=O)O [3-APS, 3-amino-1-propanesulfonic acid]
AUC0-t greater in elderly subjects compared to young subjects [1, 10]: approximately 70% | Cmax greater in elderly subjects compared to young subjects [1, 10]: approximately 70% | Tmax ([1]; NC-758 single oral 200 mg, elderly (>55 years) male subjects, fasted): 5 h | Tmax ([1]; NC-758 single oral 200 mg, young (18-45 years) male subjects, fasted): 5 h | Tmax ([1]; NC-758 single oral 300 mg, young (18-45 years) male subjects, fasted): 5 h | Tmax ([1]; human, plasma, NC-758 single oral 100 mg, young (18-45 years) male subjects, fasted, read-out: Tmax): 5 h | AUC(0-inf) ([1]; human, plasma, NC-758 single oral 200 mg, elderly (>55 years) male subjects, fasted, calculated for one individual only): 5760 ng·h/mL | Tmax ([2]; NC-758 200 mg BID, Day 1, elderly (≧55 years) male and female subjects): 6 h | Tmax ([2]; NC-758 200 mg BID, Day 12, young (18-45 years) male subjects): 4 h | Tmax ([2]; both sexes, human, plasma, oral, 200 mg, NC-758 200 mg BID, Day 12, elderly (≧55 years) male and female subjects, read-out: Tmax): 5 h | AUC(0-t) ([2]; human, plasma, oral, NC-758 100 mg BID, Day 1, young (18-45 years) male subjects, mean, read-out: AUC0-12 h): 1330 ng·h/mL | Tmax ([2]; male, human, plasma, oral, 100 mg, NC-758 100 mg BID, Day 1, young (18-45 years) male subjects, read-out: Tmax): 6 h | Tmax ([2]; male, human, plasma, oral, 100 mg, NC-758 100 mg BID, Day 12, young (18-45 years) male subjects, read-out: Tmax): 2.5 h | Tmax ([2]; male, human, plasma, oral, 200 mg, NC-758 200 mg BID, Day 1, young (18-45 years) male subjects, read-out: Tmax): 4 h | Tmax ([3]; NC-758-1 single oral 50 mg): 5 h | Tmax ([3]; NC-758-1 single oral 100 mg): 5 h | AUC∞ ([3]; NC-758-1 single oral 150 mg, mean, only subjects with estimable elimination rate constant): 4497 ng·h/mL | Tmax ([3]; NC-758-1 single oral 150 mg): 5 h | AUC(0-t) [4, 11]: ~1320 ng·h/mL | Cmax [4, 11]: ~310 ng/mL | AUC(0-inf) [4, 11]: ~1400 ng·h/mL | Tmax ([4]; 50 mg, Alzhemed (NC-758-1) 50 mg BID, Week 0 (single dose)): ~6 h | Cmax [4, 12]: ~624 ng/mL | AUC(0-inf) [4, 12]: ~3420 ng·h/mL | Tmax ([4]; 150 mg, Alzhemed (NC-758-1) 150 mg BID, Week 0 (single dose)): ~6 h | Cmax ([4]; 150 mg, Alzhemed (NC-758-1) 150 mg BID, Week 12 (repeated), mean): 639 ng/mL | tolerability [5]: better tolerated than the sodium salt form | hygroscopic nature [6]: non-hygroscopic | crossing of the blood/brain barrier [7]: crossed the blood/brain barrier | ratio of Aβ42/Aβ40 (CSF Aβ42; CSF, mild-to-moderate AD patients, FIGS. 2, 3 and 4): reduced the ratio of Aβ42/Aβ40 | baseline CSF Aβ42 (CSF Aβ42; FIG. 1): reduced baseline CSF Aβ42 | Cmax ([8]; 50 mg, Alzhemed (NC-758-1) 50 mg BID, Week 12 (repeated), mean): 451 ng/mL | AUC(0-t) ([8]; 50 mg, Alzhemed (NC-758-1) 50 mg BID, Week 12 (repeated), mean, read-out: AUC0-t (AUCss for Week 12)): 1980 ng·h/mL | Tmax ([8]; 50 mg, Alzhemed (NC-758-1) 50 mg BID, Week 12 (repeated)): 3 h | Cmax ([8]; 100 mg, Alzhemed (NC-758-1) 100 mg BID, Week 0 (single dose), mean): ~618 ng/mL | AUC(0-inf) ([8]; 100 mg, Alzhemed (NC-758-1) 100 mg BID, Week 0 (single dose), mean, only patients with estimable elimination rate constant): ~2570 ng·h/mL | AUC(0-t) ([8]; 100 mg, Alzhemed (NC-758-1) 100 mg BID, Week 0 (single dose), mean, read-out: AUC0-t): ~2470 ng·h/mL | Tmax ([8]; 100 mg, Alzhemed (NC-758-1) 100 mg BID, Week 0 (single dose)): ~4.7 h | Cmax ([8]; 100 mg, Alzhemed (NC-758-1) 100 mg BID, Week 12 (repeated), mean): 538 ng/mL | AUC(0-t) ([8]; 100 mg, Alzhemed (NC-758-1) 100 mg BID, Week 12 (repeated), mean, read-out: AUC0-t (AUCss for Week 12)): 2590 ng·h/mL | Tmax ([8]; 100 mg, Alzhemed (NC-758-1) 100 mg BID, Week 12 (repeated)): 3.5 h | AUC(0-t) ([8]; 150 mg, Alzhemed (NC-758-1) 150 mg BID, Week 0 (single dose), mean, read-out: AUC0-t): ~2790 ng·h/mL | AUC(0-t) ([8]; 150 mg, Alzhemed (NC-758-1) 150 mg BID, Week 12 (repeated), mean, read-out: AUC0-t (AUCss for Week 12)): 3570 ng·h/mL | Tmax ([8]; 150 mg, Alzhemed (NC-758-1) 150 mg BID, Week 12 (repeated)): 3 h

NCCCS(=O)(=O)[O-].[Na+] [3-amino-1-propanesulfonic acid, sodium salt]
gastrointestinal symptoms (i.e. nausea and vomiting) [9]: associated with gastrointestinal symptoms
